ChEMBL document CHEMBL3045446, “In vitro antimicrobial and antimycobacterial activity of some chalcones and their derivatives” (2013)
Converted amounts (≈) assume the structure as drawn.

Experiments:
Format in all cases: functional
[1] = test system: Mycobacterium tuberculosis; experiment: Antituberculosis activity against Mycobacterium tuberculosis H37Rv assessed as growth inhibition after 12 to 28 days by L-J MIC method; details: for MIC: Mycobacterium tuberculosis, H37Rv
Shigella flexneri [2] = experiment: Antimicrobial activity against Shigella flexneri MTCC1457 assessed as diameter of growth inhibition zone after 24 hr
Salmonella typhi [3] = experiment: Antimicrobial activity against Salmonella enterica subsp. enterica serovar Typhi MTCC 733 assessed as diameter of growth inhibition zone after 24 hr
Candida albicans [4] = experiment: Antimicrobial activity against Candida albicans MTCC 183 assessed as diameter of growth inhibition zone after 48 hr
Staphylococcus aureus [5] = experiment: Antimicrobial activity against Staphylococcus aureus MTCC 96 assessed as growth inhibition after 24 hr by agar streak dilution method; details: MTCC 96, 24 h
Bacillus cereus [6] = experiment: Antimicrobial activity against Bacillus cereus MTCC 430 assessed as growth inhibition after 24 hr by agar streak dilution method; details: MTCC 430, 24 h
Escherichia coli [7] = experiment: Antimicrobial activity against Escherichia coli MTCC 739 assessed as growth inhibition after 24 hr by agar streak dilution method; details: MTCC 739, 24 h
Aspergillus niger [8] = experiment: Antimicrobial activity against Aspergillus niger MTCC 282 assessed as diameter of growth inhibition zone after 48 hr
Proteus vulgaris [9] = experiment: Antimicrobial activity against Proteus vulgaris MTCC 1771 assessed as diameter of growth inhibition zone after 24 hr
Shigella flexneri [10] = experiment: Antimicrobial activity against Shigella flexneri MTCC1457 assessed as growth inhibition after 24 hr by agar streak dilution method; details: MTCC1457, 24 h
Klebsiella pneumoniae [11] = experiment: Antimicrobial activity against Klebsiella pneumoniae MTCC 109 assessed as growth inhibition after 24 hr by agar streak dilution method; details: MTCC 109, 24 h
Klebsiella pneumoniae [12] = experiment: Antimicrobial activity against Klebsiella pneumoniae MTCC 109 assessed as diameter of growth inhibition zone after 24 hr
Salmonella typhi [13] = experiment: Antimicrobial activity against Salmonella enterica subsp. enterica serovar Typhi MTCC 733 assessed as growth inhibition after 24 hr by agar streak dilution method; details: MTCC 733, 24 h
Aspergillus niger [14] = experiment: Antimicrobial activity against Aspergillus niger MTCC 282 assessed as growth inhibition after 48 hr by agar streak dilution method; details: MTCC 282, 48 h
Escherichia coli [15] = experiment: Antimicrobial activity against Escherichia coli MTCC 739 assessed as diameter of growth inhibition zone after 24 hr
Proteus vulgaris [16] = experiment: Antimicrobial activity against Proteus vulgaris MTCC 1771 assessed as growth inhibition after 24 hr by agar streak dilution method; details: MTCC 1771, 24 h
Aspergillus fumigatus [17] = experiment: Antimicrobial activity against Aspergillus fumigatus MTCC 343 assessed as growth inhibition after 48 hr by agar streak dilution method; details: MTCC 343, 48 h
Aspergillus clavatus [18] = experiment: Antimicrobial activity against Aspergillus clavatus MTCC 1323 assessed as growth inhibition after 48 hr by agar streak dilution method; details: MTCC 1323, 48 h
Staphylococcus aureus [19] = experiment: Antimicrobial activity against Staphylococcus aureus MTCC 96 assessed as diameter of growth inhibition zone after 24 hr
Bacillus cereus [20] = experiment: Antimicrobial activity against Bacillus cereus MTCC 430 assessed as diameter of growth inhibition zone after 24 hr
Candida albicans [21] = experiment: Antimicrobial activity against Candida albicans MTCC 183 assessed as growth inhibition after 48 hr by agar streak dilution method; details: MTCC 183, 48 h
Pseudomonas aeruginosa [22] = experiment: Antimicrobial activity against Pseudomonas aeruginosa MTCC 741 assessed as diameter of growth inhibition zone after 24 hr
Aspergillus fumigatus [23] = experiment: Antimicrobial activity against Aspergillus fumigatus MTCC 343 assessed as diameter of growth inhibition zone after 48 hr
Pseudomonas aeruginosa [24] = experiment: Antimicrobial activity against Pseudomonas aeruginosa MTCC 741 assessed as growth inhibition after 24 hr by agar streak dilution method; details: MTCC 741, 24 h
Aspergillus clavatus [25] = experiment: Antimicrobial activity against Aspergillus clavatus MTCC 1323 assessed as diameter of growth inhibition zone after 48 hr

Row | SMILES | growth inhibition (GI) [1] [%] | MIC [1] [µg/mL] | diameter of the inhibition zone (DIZ) (Shigella flexneri [2]) [mm] | diameter of the inhibition zone (DIZ) (Salmonella typhi [3]) [mm] | diameter of the inhibition zone (DIZ) (Candida albicans [4]) [mm] | MIC (Staphylococcus aureus [5]) [µg/mL] | MIC (Bacillus cereus [6]) [µg/mL] | MIC (Escherichia coli [7]) [µg/mL] | diameter of the inhibition zone (DIZ) (Aspergillus niger [8]) [mm] | diameter of the inhibition zone (DIZ) (Proteus vulgaris [9]) [mm] | MIC (Shigella flexneri [10]) [µg/mL] | MIC (Klebsiella pneumoniae [11]) [µg/mL] | diameter of the inhibition zone (DIZ) (Klebsiella pneumoniae [12]) [mm] | MIC (Salmonella typhi [13]) [µg/mL] | MIC (Aspergillus niger [14]) [µg/mL] | diameter of the inhibition zone (DIZ) (Escherichia coli [15]) [mm] | MIC (Proteus vulgaris [16]) [µg/mL] | MIC (Aspergillus fumigatus [17]) [µg/mL] | MIC (Aspergillus clavatus [18]) [µg/mL] | diameter of the inhibition zone (DIZ) (Staphylococcus aureus [19]) [mm] | other results
1 | CC(=O)N1N=C(c2ccc(Nc3cc(=O)oc4ccccc34)cc2)CC1c1ccc(F)cc1 (stereo not drawn) | 98 | 100 (≈ 227 µM) | 20 | 18 | 16 | 12.5 (≈ 28.3 µM) | 12.5 (≈ 28.3 µM) | 50 (≈ 113 µM) | 20 | 21 | 25 (≈ 56.6 µM) | 12.5 (≈ 28.3 µM) | 23 | 50 (≈ 113 µM) | 25 (≈ 56.6 µM) | 20 | 25 (≈ 56.6 µM) | 25 (≈ 56.6 µM) | 50 (≈ 113 µM) | 23 | diameter of the inhibition zone (DIZ) (Bacillus cereus [20]): 22 mm; MIC (Candida albicans [21]): 50 µg/mL (≈ 113 µM); diameter of the inhibition zone (DIZ) (Pseudomonas aeruginosa [22]): 17 mm; diameter of the inhibition zone (DIZ) (Aspergillus fumigatus [23]): 22 mm; MIC (Pseudomonas aeruginosa [24]): 50 µg/mL (≈ 113 µM); diameter of the inhibition zone (DIZ) (Aspergillus clavatus [25]): 20 mm
2 | Nc1nc(-c2ccc(Nc3cc(=O)oc4ccccc34)cc2)cc(-c2ccc(O)cc2O)n1 | 97 | 200 (≈ 456 µM) | 23 | 24 | 21 | 12.5 (≈ 28.5 µM) | 12.5 (≈ 28.5 µM) | 12.5 (≈ 28.5 µM) | 22 | 28 | 12.5 (≈ 28.5 µM) | 6.25 (≈ 14.3 µM) | 26 | 12.5 (≈ 28.5 µM) | 12.5 (≈ 28.5 µM) | 22 | 3.12 (≈ 7.12 µM) | 12.5 (≈ 28.5 µM) | 6.25 (≈ 14.3 µM) | 21 | diameter of the inhibition zone (DIZ) (Bacillus cereus [20]): 21 mm; MIC (Candida albicans [21]): 25 µg/mL (≈ 57 µM); diameter of the inhibition zone (DIZ) (Pseudomonas aeruginosa [22]): 23 mm; diameter of the inhibition zone (DIZ) (Aspergillus fumigatus [23]): 25 mm; MIC (Pseudomonas aeruginosa [24]): 12.5 µg/mL (≈ 28.5 µM); diameter of the inhibition zone (DIZ) (Aspergillus clavatus [25]): 25 mm
3 | Cc1ccc(-c2cc(-c3ccc(Nc4cc(=O)oc5ccccc45)cc3)nc(N)n2)cc1 | 98 | 200 (≈ 476 µM) | 22 | 18 | 16 | 50 (≈ 119 µM) | 50 (≈ 119 µM) | 100 (≈ 238 µM) | 21 | 21 | 25 (≈ 59.5 µM) | 100 (≈ 238 µM) | 16 | 50 (≈ 119 µM) | 25 (≈ 59.5 µM) | 15 | 25 (≈ 59.5 µM) | 50 (≈ 119 µM) | 100 (≈ 238 µM) | 18 | diameter of the inhibition zone (DIZ) (Bacillus cereus [20]): 19 mm; MIC (Candida albicans [21]): 50 µg/mL (≈ 119 µM); diameter of the inhibition zone (DIZ) (Pseudomonas aeruginosa [22]): 19 mm; diameter of the inhibition zone (DIZ) (Aspergillus fumigatus [23]): 18 mm; MIC (Pseudomonas aeruginosa [24]): 50 µg/mL (≈ 119 µM); diameter of the inhibition zone (DIZ) (Aspergillus clavatus [25]): 16 mm
